The results in this text go back to patent US11512053B2, “Arginine methyltransferase inhibitors and uses thereof” (priority 2013, dated 2022).

This test deals with T1, full-length human PRMT3 isoform 1 (GST-tagged) (Homo sapiens, UniProt O60678).
T1 construct: GST-tagged PRMT3; made in house; host or cells: E. coli BL21(DE3) Gold
Put plainly: PRMT3 Biochemical Assay (3H-SAM Flashplate, peptide substrate). The following applies: single experiment or average of multiple experiments. From the text:
General Materials. S-adenosylmethionine (SAM), S-adenosylhomocysteine (SAH), bicine, Tween20, dimethylsulfoxide (DMSO), bovine skin gelatin (BSG),), isopropyl-β-D-thiogalactopyranoside (IPTG), and Tris(2-carboxyethyl)phosphine hydrochloride solution (TCEP) were purchased from Sigma-Aldrich at the highest level of purity possible. ^3H-SAM was purchase from American Radiolabeled Chemicals with a specific activity of 80 Ci/mmol. 384-well streptavidin Flashplates were purchased from PerkinElmer.
Substrates. Peptide containing the classic RMT substrate motif was synthesized with an N-terminal linker-affinity tag motif and a C-terminal amide cap by 21st Century Biochemicals. The peptide was purified by high-performance liquid chromatography (HPLC) to greater than 95% purity and confirmed by liquid chromatography mass spectrometry (LC-MS). The sequence was Biot-Ahx-[…]-amide (SEQ ID NO.:11).
Molecular Biology: Full-length human PRMT3 (NM_005788.3) isoform 1 transcript clone was amplified from an HEK 293 cDNA library and subcloned into pGEX-KG (GE Life Sciences). The resulting construct encodes an N-terminal GST tag and a thrombin cleavage sequence ([…] […] […] […] S) (SEQ ID NO.:12) fused directly to Cys 2 of PRMT3.
Protein Expression. E. coli (BL21(DE3) Gold, Stratagene) made competent by the CaCl2) method were transformed with the PRMT3 construct and ampicillin selection. Protein over-expression was accomplished by growing the PRMT3 expressing E. coli clone and inducing expression with 0.3 mM IPTG at 16° C. The culture was grown for 12 hours, harvested by centrifugation, and stored at −80° C. for purification.
Protein Purification. […] GST-tagged PRMT3 was eluted with 50 mM Tris, 2 mM glutathione, pH 7.1 and 50 mM Tris, 20 mM glutathione, pH 7.1. Pooled fractions were dialysed in 20 mM Tris, 50 mM NaCl, 5% glycerol, 1 mM EDTA, 1 mM DTT, pH7.5 (Buffer B) and applied to a Q Sepharose Fast Flow column. GST-tagged PRMT3 was eluted by 500 mM NaCl in buffer B. Pooled fractions were dialyzed in 25 mM phosphate buffer, 100 mM NaCl, 5% glycerol, 2 mM DTT, pH 6.8 (Buffer C) and loaded on to a ceramic hydroxyapatite column. GST-tagged PRMT3 eluted with 25-400 mM phosphate in buffer C. Protein was concentrated and buffer was exchanged to 20 mM Tris, 150 mM NaCl, 5% glycerol, 5 mM β-mercaptoethanol, pH7.8 by ultrafiltration. The purity of recovered protein was 70%.
General Procedure for PRMT3 Enzyme Assays on Peptide Substrates. The assays were all performed in a buffer consisting of 20 mM Bicine (pH=7.6), 1 mM TCEP, 0.005% BSG, and 0.002% Tween 20, prepared on the day of use. Compounds in 100% DMSO (1 ul) were spotted into a polypropylene 384-well V-bottom plates (Greiner) using a Platemate Plus outfitted with a 384-channel head (Thermo Scientific). DMSO (1 ul) was added to Columns 11, 12, 23, 24, rows A-H for the maximum signal control and 1 ul of SAH, a known product and inhibitor of PRMT3, was added to columns 11, 12, 23, 24, rows I-P for the minimum signal control. A cocktail (40 ul) containing the PRMT3 enzyme was added by Multidrop Combi (Thermo-Fisher). The compounds were allowed to incubate with PRMT3 for 30 min at room temperature, then a cocktail (10 ul) containing SAM and peptide was added to initiate the reaction (final volume=51 ul). The final concentrations of the components were as follows: PRMT3 was 0.5 nM, ^3H-SAM was 100 nM, non-radiolabeled SAM was 1.8 uM, peptide was 330 nM, SAH in the minimum signal control wells was 1 mM, and the DMSO concentration was 2%. The assays were stopped by the addition of potassium chloride (10 ul) to a final concentration of 100 mM. 50 ul of the reaction in the 384-well polypropylene plate was then transferred to a 384-well Flashplate and the biotinylated peptides were allowed to bind to the streptavidin surface for at least 1 hour before being washed once with 0.1% Tween20 in a Biotek ELx405 plate washer. […]

T1 sequence (O60678 with tags, fused parts or gaps): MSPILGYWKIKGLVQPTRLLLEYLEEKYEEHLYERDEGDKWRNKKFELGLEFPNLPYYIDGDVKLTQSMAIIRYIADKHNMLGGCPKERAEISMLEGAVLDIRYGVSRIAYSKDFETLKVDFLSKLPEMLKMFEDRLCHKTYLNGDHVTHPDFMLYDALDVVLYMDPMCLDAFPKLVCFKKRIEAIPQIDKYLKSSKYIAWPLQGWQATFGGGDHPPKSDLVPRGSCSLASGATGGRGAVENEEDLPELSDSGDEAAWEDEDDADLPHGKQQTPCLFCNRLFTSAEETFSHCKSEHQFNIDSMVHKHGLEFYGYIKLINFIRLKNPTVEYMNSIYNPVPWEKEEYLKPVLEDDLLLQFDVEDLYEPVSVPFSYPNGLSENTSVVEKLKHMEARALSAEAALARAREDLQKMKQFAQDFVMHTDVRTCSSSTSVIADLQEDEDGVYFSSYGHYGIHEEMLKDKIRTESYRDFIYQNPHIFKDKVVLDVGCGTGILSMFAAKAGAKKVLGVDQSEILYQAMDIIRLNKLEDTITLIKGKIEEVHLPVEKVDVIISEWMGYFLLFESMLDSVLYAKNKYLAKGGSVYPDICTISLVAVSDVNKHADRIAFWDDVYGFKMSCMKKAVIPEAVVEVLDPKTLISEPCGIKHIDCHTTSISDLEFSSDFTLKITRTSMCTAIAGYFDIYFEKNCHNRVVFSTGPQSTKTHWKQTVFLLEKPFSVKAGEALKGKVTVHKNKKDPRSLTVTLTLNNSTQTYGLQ

Turning to `CNCCN(C)Cc1c[nH]nc1C#Cc1ccccc1` [Compound 3], the IC50 (as a rule, the midpoint of a concentration-inhibition curve) worked out at 9.4 µM.
